Data set [1] has as its system VCAM-1. The data set can be described thus: Cell surface ELISA for VCAM-1 in human aortic smooth muscle cells (HASMC), cytokine-induced (interleukin-4). It is filed as cell-based. The following applies: for inhibition at 50 µM: HASMC; for IC50: HSMC, eight serial dilutions, basal expression subtracted. The protocol: (§1) Cell Surface ELISA for VCAM-1/ICAM-1
(§2) Proliferating human umbilical vein endothelial cells (HUVEC) or human aortic smooth muscle cells (HASMC) from Clonetics (San Diego, Calif.) were plated onto 96-well plates in 100 μL medium per well at 20,000 cells per cm^2. The cultures were maintained in growth medium (EGM or SMGM2, Clonetics, San Diego, Calif.) for two days prior to addition of cytokines or drugs. Cytokines plus or minus compounds were added for 20 to 24 hours prior to analysis for adhesion molecule levels. Tumor necrosis factor (Genzyme, Cambridge, Mass.) was added to cultures at 500-1000 units/mL. Interleukin-4 (GIBCO-BRL, Gaithersburg, Md.) was added to cultures at 100-200 pg/mL. (Additions were made by transferring 100 μL of cytokines plus compounds serially diluted on a separate 96-well plate into the plates containing cells. The medium on the cultures was not exchanged prior to addition of effectors). The culture medium was removed, and the monolayers were washed twice with Hanks buffered saline solution (HBSS) at room temperature. The primary antibody (anti-human VCAM-1 from Upstate Biotechnology, Inc., Lake Placid, N.Y. or anti-human ICAM-1 from Immunotech, Inc., Westbrook, Me.) was added to each well (1 μg/mL in HBSS plus 5% newborn calf serum, GIBCO-BRL, Gaithersburg, Md.) and incubated at 37° C. for 1 hr. The wells were washed twice with HBSS, then 100 μL of a 1/1000 dilution of goat anti-mouse IgG conjugated to horse radish peroxidase (BioRad, Hercules, Calif.) in HBSS plus 5% newborn calf serum was added to each well and incubated for 1 hr at 37° C. The wells were washed three times with HBSS, then 100 μL of TMB substrate (BioRad, Hercules, Calif.) was added to each well. The reaction was stopped after blue color developed by addition of 50 μL of 1N H2 SO4. Absorbance is measured at 450 nm with a plate reader. IC50 values were determined from curves of absorbance values obtained from serial dilutions of compounds (dissolved in dimethyl sulfoxide).
(§3) The IC50 value is defined as the drug concentration that inhibits the cytokine-induced adhesion molecule expression by 50%. Maximal values for adhesion molecule expression in cytokine-induced cultures was subtracted from the basal level of adhesion molecule expression (minus cytokines) in the cultures to determine the level of induction. […] Each drug concentration was tested in quadruplicate wells. Single point tests of compounds at 50 μM were assayed as described for IC50 determinations, except that the data represent the level of inhibition without correction for basal expression. (Basal adhesion molecule expression was 10-20% of the total induced expression).
Table 1 summarizes the ability of various compounds of this invention to inhibit VCAM-1 using human aortic smooth muscle cells (HASMC). In these experiments, the cells were coincubated with interleukin-4 and the compounds listed about 20 hr before assaying cell surface VCAM-1 levels. Each column represents a separate experiment.
(§4) Table 3 illustrates the activity of selected compounds when eight serial dilutions of drug were tested against cytokine induction of VCAM-1 expression in both vascular endothelial and smooth muscle cells. Subtraction of basal VCAM-1 expression was also used in the calculation of IC50 values. Each compound was also tested in a similar manner for ICAM-1 inhibition. No inhibition of ICAM-1 was detected (up to 100 μM) in vascular smooth muscle cells.

Data set [2] relates to VCAM-1. Description: Cell surface ELISA for VCAM-1 in human umbilical vein endothelial cells (HUVEC), cytokine-induced (tumor necrosis factor-alpha). It is filed as cell-based. The settings on record: for inhibition at 50 µM: read-out: VCAM-1 (% inh. 50 μM); for IC50: eight serial dilutions, basal expression subtracted. The protocol:
as §1, §2, §3
(§5) In these experiments, the cells were coincubated with tumor necrosis factor-alpha along with the indicated compounds about 20 to 24 hr before assaying cell surface adhesion molecule expression.
as §4
A general note: In an ELISA, binding on a coated surface is turned into a signal by an enzyme label.

Data set [3] concerns VCAM-1. Description: In vivo inhibition of LPS-induced VCAM-1 upregulation in rabbit aorta (immunohistochemistry). Also noted: species or system New Zealand white rabbits. The settings on record: 0.4% in diet for three weeks; LPS 40 μg/animal i.v.; aorta 4 hr after LPS; when adequately accumulated. An excerpt: FIG. 1 illustrates the effect of 2,6-di-t-butyl-4-[(dimethylphenylsilyl)methylthio]phenol (MDL 29,353) on LPS induced VCAM-1 expression in rabbit aorta in vivo. Data are expressed as the percent of the aortic surface endothelium expressing VCAM-1 as measured by immunostaining with an anti-rabbit VCAM-1 antibody.
In Vivo Inhibition of VCAM-1 Upregulation by MDL 29,353 in Rabbit Aorta
New Zealand white rabbits were fed a diet of chow plus or minus 0.4% MDL 29,353 for three weeks prior to challenge with lipopolysaccharide (LPS, 40 μg/animal, i.v. ear vein). The aorta was removed from each animal 4 hr after LPS injection and rinsed briefly in phosphate buffered saline. VCAM-1 was immunohistochemistry was performed by incubating the tissues with RB1/9 antibody (mouse anti-rabbit VCAM-1) at 4° C. overnight. The bound RB1/9 was detected using a biotinylated goat anti-mouse secondary antibody (60 min, RT). VCAM-1 staining was accomplished by addition of streptavidin-alkaline phosphatase conjugate (30 min, RT) followed by an incubation with BT Red (Biotec, 10, RT). Images of the stained tissues were captured using an image analysis system for determination of the percentages of the aortic endothelium showing immunoreactivity with anti-VCAM antibody.

Data set [4] concerns ICAM-1. The data set can be described thus: Cell surface ELISA for ICAM-1 in human umbilical vein endothelial cells (HUVEC), cytokine-induced (tumor necrosis factor-alpha). Type of data set: cell-based. The following applies: for inhibition at 50 µM: Homo sapiens, HUVEC, read-out: ICAM-1 (% inh. 50 μM). On the procedure: as §1, §2, §3, §5, §4
In data set [5] the test system is human umbilical vein endothelial cells (HUVEC). Description: Loss of HUVEC adherence to the tissue culture surface (microscope). Type of data set: cell-based. The following applies: vascular endothelial cells; 50 and 100 μM; observed with a microscope.
The test system of data set [6] is VCAM-1. The settings on record: vascular endothelial cells; cited from earlier work.
The subject of data set [7] is ICAM-1. The settings on record: vascular endothelial cells; cited from earlier work.
Setting [8] is: 20 h, read-out: HSMC-1 (% inh. 50 μM) VCAM-1.
Setting [9] is: 20 h, read-out: HSMC-2 (% inh. 50 μM) VCAM-1.
The mark [10] stands for this setting: 20 h, read-out: HSMC-3 (% inh. 50 μM) VCAM-1.
Setting [11] is: HSMC-1 experiment, 50 μM, interleukin-4, about 20 hr, no correction for basal expression, read-out: HSMC-1 (% inh. 50 μM) VCAM-1.
Setting [12] is: HSMC-2 experiment, 50 μM, interleukin-4, about 20 hr, no correction for basal expression, read-out: HSMC-2 (% inh. 50 μM) VCAM-1.
The mark [13] stands for this setting: HSMC-3 experiment, 50 μM, interleukin-4, about 20 hr, no correction for basal expression, read-out: HSMC-3 (% inh. 50 μM) VCAM-1.
The mark [14] stands for this setting: average of HSMC-1, HSMC-2, HSMC-3, 50 μM, read-out: VCAM-1 (Avg.) % inh.
Where [15] appears, read: 50 μM, TNF-alpha, 20 to 24 hr, average of two runs.
[16] abbreviates: 50 μM, TNF-alpha, 20 to 24 hr, average of three runs.

Like-named read-outs stand apart in the source and are kept apart here.

Regarding `CC(C)(C)c1cc(SC[Si](C)(C)C)cc(C(C)(C)C)c1O` [MDL 28,235, 2,6-Di-t-butyl-4-[(trimethylsilyl)methylthio]phenol], the inhibition at 50 µM in the data set with VCAM-1 [1] (setting [8]) worked out at 7.8%; with VCAM-1 [1] (setting [9]), 18%; with VCAM-1 [1] (setting [10]) it was 42%; in the data set with VCAM-1 [1] (read-out: VCAM-1 (Avg.) % inh.) it was 22.6%; with VCAM-1 [2] it was 4.3%.
Regarding `CC(C)(C)c1cc(SC[Si](C)(C)c2ccccc2)cc(C(C)(C)C)c1O` [MDL 29,353, 2,6-Di-t-butyl-4-[(dimethylphenylsilyl)methylthio]phenol], the inhibition at 50 µM in the data set on VCAM-1 [1] (setting [11]) came out at 58%; in the data set on VCAM-1 [1] (setting [12]) it was 60%; in the data set with VCAM-1 [1] (setting [13]) it was 46%; in the data set on VCAM-1 [1] (setting [14]), 54.7%; in the data set with ICAM-1 [4] (setting [15]), 6%; in the data set on VCAM-1 [2] (setting [16]) it was 8.7%. In addition, the results for the IC50 in the data set on VCAM-1 [1] and in the data set with VCAM-1 [2] were 10 µM and 19 µM, respectively. Moreover, in the data set with VCAM-1 [3], the “Inhibition of LPS induced VCAM-1 expression in rabbit aortic endothelium (FIG. 1)” value is “can inhibit the LPS induced level of VCAM-1 expression in rabbit aortic endothelium”.
For `Cc1cc(OC[Si](C)(C)c2ccccc2)cc(C)c1O` [MDL 103,719, 2,6-Dimethyl-4-[(dimethylphenylsilyl)methyloxy]phenol], the inhibition at 50 µM in the data set with VCAM-1 [1] (setting [9]) was determined as 49%; with VCAM-1 [1] (setting [10]), 42%; with VCAM-1 [1] (read-out: VCAM-1 (Avg.) % inh.), 45.5%; in the data set with ICAM-1 [4], 77%; with VCAM-1 [2], 17%.
As for `CC(C)(C)c1cc(OC[Si](C)(C)c2ccccc2)cc(C(C)(C)C)c1O` [MDL 103,902, 2,6-Di-t-butyl-4-[(dimethylphenylsilyl)methyloxy]phenol], in data set [5], the “Cell adherence to the tissue culture surface” value was “loss of cell adherence”. The inhibition at 50 µM in the data set on VCAM-1 [1] (setting [11]) was 49%; with VCAM-1 [1] (setting [12]), 60%; with VCAM-1 [1] (setting [13]), 43%; in the data set on VCAM-1 [1] (setting [14]), 50.7%; in the data set on ICAM-1 [4] (setting [15]) it was 39%; in the data set with VCAM-1 [2] (setting [16]), 25.3%. The figures for the IC50 in the data set with VCAM-1 [1] and in the data set on VCAM-1 [2] were 5 µM and 11 µM, respectively. In addition, the “Inhibition of ICAM-1 expression in vascular endothelial cells” value in the data set with ICAM-1 [4] (50 and 100 μM, could be accounted for by loss of cell adherence) is “significant inhibition of ICAM-1 expression”.
For the compound `CC(C)(C)c1cc(OC[Si](C)(C)c2ccc(Cl)cc2)cc(C(C)(C)C)c1O` [MDL 104,280, 2,6-Di-t-butyl-4-[(4-chlorophenyldimethylsilyl)methyloxy]phenol], the inhibition at 50 µM was 54.7% with VCAM-1 [1] (setting [8]); 63% in the data set on VCAM-1 [1] (setting [9]); 44% in the data set on VCAM-1 [1] (setting [10]); 53.9% with VCAM-1 [1] (read-out: VCAM-1 (Avg.) % inh.); 22% in the data set on ICAM-1 [4]; 27.3% in the data set on VCAM-1 [2].
For the compound `Cc1cc(SC[Si](C)(C)c2ccccc2)cc(C(C)(C)C)c1O` [MDL 104,518, 2-t-butyl-6-methyl-4-[(dimethylphenylsilyl)methylthio]phenol], the inhibition at 50 µM with VCAM-1 [1] (setting [8]) is 4.4%; in the data set on VCAM-1 [1] (setting [9]), 47%; with VCAM-1 [1] (setting [10]), 26%; with VCAM-1 [1] (read-out: VCAM-1 (Avg.) % inh.), 25.8%; with ICAM-1 [4], 78%.
On to `COc1ccc([Si](C)(C)COc2cc(C(C)(C)C)c(O)c(C(C)(C)C)c2)cc1` [MDL 105,074, 2,6-Di-t-butyl-4-[(dimethyl-4-methoxyphenylsilyl)methyloxy]phenol], for which the inhibition at 50 µM in the data set on VCAM-1 [1] (setting [11]) turned out to be 28.3%; in the data set with VCAM-1 [1] (setting [12]), 52%; in the data set on VCAM-1 [1] (setting [13]), 47%; with VCAM-1 [1] (setting [14]), 42.4%; with VCAM-1 [2] (setting [16]) it was 20%. Further, the IC50 (as a rule, the midpoint of a concentration-inhibition curve) was 40 µM in the data set on VCAM-1 [1] and 12 µM in the data set on VCAM-1 [2].
`CC(=O)N[C@@H](CS)C(=O)O` [N-acetylcysteine]: the “Inhibition of cytokine-induced expression of VCAM-1” value with VCAM-1 [6] is reported as “inhibit cytokine-induced expression of VCAM-1”. Further, the “Inhibition of cytokine-induced expression of ICAM-1” value in the data set with ICAM-1 [7] is on record as “not ICAM-1”.
Regarding `S=C(S)N1CCCC1` [pyrollidine dithiocarbamate], in the data set with VCAM-1 [6], the “Inhibition of cytokine-induced expression of VCAM-1” value was “inhibit cytokine-induced expression of VCAM-1”. In addition, in the data set with ICAM-1 [7], the “Inhibition of cytokine-induced expression of ICAM-1” value is given as “not ICAM-1”.
